These results are taken from patent US8975295B2, “Modulation of zinc levels to improve tissue properties” (Precision Dermatology, Inc., priority 2002, dated 2015).

For one data set, the system named is elastase. The experiment in a line: Elastase activity with divalent cations in PBS, read at 405 nm. Format: biochemical. Particulars: for Elastase activity: 0.005M to 0.01M cation concentration in PBS; for sensitivity of elastase to the cation (comparison of the ions): read every minute for 15 minutes. The procedure: An assay was run that involved varying concentrations of each divalent cation, ranging from concentrations of 0.005M to 1.0M, in phosphate buffered saline (PBS). The positive control contained no cations, while the negative control contained no elastase. Solutions were read at 405 nm every minute for 15 minutes under controlled conditions. The optical density value of the negative control, which represented background interference, was subtracted from each result. These corrected optical density values from the two trials were averaged.

Another data set relates to epidermis. The procedure:
(§1) To prepare these solutions, a 1.0 M stock of zinc acetate [ZnAc*(H2O)2] (Mallinkrodt Lot 8740 KPRK) was prepared in sterile phosphate buffered saline (PBS, pH 7.2, Gibco BRL Lot #1111327) by dissolving 109.75 g in 500 mL. To 0.2 ml of Cetaphil® moisturizer base was added 20 μl of solution a, b, c, or d depending upon group (corresponding to Groups “A,” “B,” “C,” or “D”). For group A, added 20 μl PBS alone to 180 μl Cetaphil×84 tubes. For group B, added 20 μl 1.0M Zn to 180 μl Cetaphil×84 tubes. For group C, added 200 μl of 1.0M Zn to 19.8 ml PBS, vortexed, labeled as 0.01M Zn, and added 20 μl of […] to 180 μl Cetaphil×84 tubes. For group D, added 200 μl 0.01M Zn to 19.8 ml PBS, vortexed, labeled as 0.1 mM Zn, and added 20 μl […] to 180 μl Cetaphil×84 tubes. After addition of samples to moisturizer base, the samples were mixed to homogeneity and stored at 4° C. overnight. At N=4 per treatment group, C57 Black Six mice at 8 weeks of age were anesthetized with 3% isoflurane by inhalation, and were shaved at mid-scapular dorsal region. Moisturizer was applied daily at 0.2 cc per day for each group for a 21 day period. After 21 days application, the treated skin segment was harvested en bloc and subdivided into three equal portions: a cranial portion, a left lateral portion, and a right lateral portion. The cranial portion and the left lateral portion were fixed in 10% neutral buffered formalin for 12-16 hours, then rinsed in 70% ethanol and embedded in paraffin. The right lateral portion was snap frozen in OCT medium at the time of harvest and stored at −35° C. until use.
Paraffin-embedded specimens from animals treated in example 1 above were sectioned at 4-6 microns, deparaffinized, and stained with a combination of Verhoeff elastica stain and the Masson trichrome stain for morphological assessment of epidermal thickness. All procedures and analyses were performed by blinded observers. […] Images were analyzed using Image Pro Plus software (Media Cybernetics, Silver Spring, Md.) to determine total cross-sectional area of epidermis over standardized lengths. Mean and standard error were assessed using Statview (Abacus Concepts, Berkeley, Calif.), with comparisons made using ANOVA repeated measures and significance determined at 95% with post-hoc testing using Fisher PLSD or Scheffe F-test.
Paraffin-embedded specimens from animals were treated in Example 1 except that the doses of 10.0 μM Zn^++, 1.0 μM Zn^++, 0.1 μM Zn^++, and the control were applied for 42 days. Specimens were fixed and embedded as above, sectioned at 4-6 microns, deparaffinized, and stained with a combination of Verhoeff elastica stain and the Masson trichrome stain for morphological assessment of epidermal thickness. All procedures and analyses were performed by blinded observers. […] Images were analyzed using Image Pro Plus software (Media Cybernetics, Silver Spring, Md.) to determine total cross-sectional area of epidermis over standardized lengths. Mean and standard error were assessed using Statview (Abacus Concepts, Berkeley, Calif.), with comparisons made using ANOVA repeated measures and significance determined at 95% with post-hoc testing using Fisher PLSD or Scheffe F-test.

For the next data set, the system named is murine skin. Particulars: for local irritation of skin: 21 days topical. Here is the method:
as §1
All procedures and analyses were performed by blinded observers.

For a further data set, the system named is deep white fat. Particulars: 10 μM Zn++, 21 days, lateral abdomen; base only 29375.425; P = 0.0001. The procedure: (§2) All procedures and analyses were performed by blinded observers. […] Images were analyzed using Image Pro Plus software (Media Cybernetics, Silver Spring, Md.) to determine total cross-sectional area of epidermis over standardized lengths. Mean and standard error were assessed using Statview (Abacus Concepts, Berkeley, Calif.), with comparisons made using ANOVA repeated measures and significance determined at 95% with post-hoc testing using Fisher PLSD or Scheffe F-test.

The subject of a further data set is hypodermal brown fat. The following applies: 21 days, base only 456566.375. Here is the method: as §1, §2

Where two headings read alike, the source gives them in different places.

For `[Ca+2]` [Ca^2+], in the data set with elastase, the Elastase activity result is “increased” and the “sensitivity of elastase to the cation (comparison of the ions)” value (“sensitivity of elastase to the cation” below) is on record as “most sensitive”.

As to `[Mg+2]` [Mg^2+], in the data set on elastase, the Elastase activity entry is reported as “increased” and the “sensitivity of elastase to the cation” value is “least sensitive”.

For the compound `CC(=O)[O-].CC(=O)[O-].[Zn+2]` [Zn^++, zinc acetate], the Elastase activity result with elastase is “increased”. Also, the “elastase function as the concentration of zinc-containing components increases” value in the data set with elastase (increasing concentration) was “stabilizing, then destabilizing, then restabilizing elastase function”. For the same compound, the “sensitivity of elastase to the cation” value in the data set on elastase was “most constantly inhibited”. For the same compound, the “Epidermal area across standardized epidermal lengths, Mean” value in the data set with epidermis (0.1 μM Zn++ (Z low), 42 days, base only 6728.286) turned out to be 6710.000 pixels; in the data set on epidermis (1.0 μM Zn++ (Z med), 42 days, base only 6728.286), 7724.190 pixels; in the data set on epidermis (10 μM Zn++ (Z high), 42 days, base only 6728.286, P = 0.0014), 7203.875 pixels; in the data set with epidermis (10.0 μM Zn++ (Z low), 21 days, base only 18221.646), 16786.125 pixels; with epidermis (1.0 mM Zn++ (Z med), 21 days, base only 18221.646), 20799.188 pixels; in the data set with epidermis (100 mM Zn++ (Z high), 21 days, base only 18221.646) it was 27365.292 pixels. Besides, in the data set on murine skin (21 days daily topical, 10 μM, 1.0 mM, 100 mM Zn++ in moisturizer base vs base only), the “elastin content of skin (black elastic fibers, Verhoeff Elastica stain)” value is recorded as “dose-dependant increases in the elastin content of skin”. Besides, the “local irritation of skin” value is “epidermal sloughing and irritation occurs” with murine skin (high dose, 100 mM Zn++ (Z high)); “without local signs of irritation” in the data set with murine skin (lower doses (Z low, Z med)). The “Cross-sectional deep adipose area across standardized epidermal lengths, Mean” value with deep white fat was determined as 73011.321 pixels. For the same compound, the “Cross-sectional hypodermal adipose area across standardized epidermal lengths, Mean” value with hypodermal brown fat (10 μM Zn++ (Z low), P=0.0001) stood at 436809.417 pixels; in the data set with hypodermal brown fat (1.0 mM Zn++ (Z med)), 377185.833 pixels; in the data set on hypodermal brown fat (100 mM Zn++ (Z high)), 132251.333 pixels.
